In PMC6888615, “A Miniaturized Pump Out Method for Characterizing Molecule Interaction with ABC Transporters” (International Journal of Molecular Sciences, 2019):
Where two headings read alike, the source gives them in different places.

Legend:
[1] = Bidirectional transport (Papp) across Caco-2 monolayers on 24-well inserts, 21 days; settings: human, Caco-2, pH 7.4
[2] = system: P-gp/BCRP; experiment: Caco-2 pump out assay, rhodamine 123 excretion; settings: for decrease of Kout of R123: 50 µM (cyclosporin A, elacridar, TPGS 10 µM; doxorubicin 20 µM); for Ratio Kout 96/384 wells, P-gp/BCRP: Kout R123 96-well / 384-well;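 for all read-outs here: Caco-2 cells loaded 120 min with 10 µM rhodamine 123, then dye efflux read by fluorescence at 37 °C every 2 min for 1 h, Kout as slope, compared against compound-free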
[3] = system: P-gp; settings: read-out: P-gp IC50 based on the digoxin ER; cited from earlier work
[4] = system: MRPs; experiment: Caco-2 pump out assay, CMFDA excretion; type: cell-based; settings: for effect on rate out of CMFDA: 50 µM (cyclosporin A 10 µM; doxorubicin 20 µM); for reduction of kout of CMFDA: 50 µM (elacridar 10 µM), p < 0.001
[5] = system: MRPs; design: method as in PMID 21415249; settings: read-out: MRPs IC50 published value; cited from earlier work
[6] = system: P-gp; settings: cited from earlier work
[7] = system: MRPs; settings: cited from earlier work
[8] = system: BCRP; settings: cited from earlier work
[9] = system: P-gp/BCRP;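 note: Caco-2 cells loaded 120 min with 10 µM rhodamine 123, then dye efflux read by fluorescence at 37 °C every 2 min for 1 h, Kout as slope, compared against compound-free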
[10] = system: Caco-2 cells
[11] = system: efflux pump activity in Caco-2 cells; experiment: b→a permeability of doxorubicin across Caco-2 with efflux pump inhibitors; type: in vitro ADME; settings: doxorubicin 20 µM; cyclosporin A 10 µM, elacridar 0.5 µM

Compound: OC[C@@H](O)[C@@H](O)[C@H](O)[C@H](O)CO [mannitol, Mannitol D-[1-14C]]
- Papp A→B at 1 h [1]: 0.26 ± 0.03 ×10⁻⁶ cm/s
- Papp B→A at 1 h [1]: 0.32 ± 0.03 ×10⁻⁶ cm/s

Compound: D-α-Tocopherol polyethylene glycol 1000 succinate
- kout Rho 123, mean [2]: 33.7 ± 2.7 pmol.min^−1.mg^−1 Protein
- decrease of Kout of R123 ([2]; p < 0.001): more than 30%
- Transporter interaction, P-gp/BCRP ([2]; 96 wells): + (Interaction with efflux pumps when Kout ≤ 80% of control)
- Transporter interaction, P-gp/BCRP ([2]; 384 wells): + (Interaction with efflux pumps when Kout ≤ 80% of control)

Compound: C=C[C@H]1C[N@@]2CC[C@H]1C[C@@H]2[C@@H](O)c1ccnc2ccc(OC)cc12 [quinidine]
- IC50 [3]: 4.9 ± 0.9 µM

Compound: CC(=O)Nc1ccc(O)cc1 [acetanomiphen]
- kout Rho 123, mean [2]: 113.7 ± 12.6 pmol.min^−1.mg^−1 Protein
- Ratio Kout 96/384 wells, P-gp/BCRP [2]: 1.08

Compound: CN(C)C(=O)CCSC(SCCC(=O)O)c1cccc(C=Cc2ccc3ccc(Cl)cc3n2)c1 (centres unmarked) [MK571, 3-[[3-[2-(7-chloroquinolin-2-yl)vinyl]phenyl]-(2-dimethylcarbamoylethylsulfanyl)methylsulfanyl] propionic acid]
- effect on rate out of CMFDA [4]: decreased strongly
- Transporter interaction, MRPs ([4]; 96 wells): + (Interaction with efflux pumps when Kout ≤ 80% of control)
- Transporter interaction, MRPs ([4]; 384 wells): + (Interaction with efflux pumps when Kout ≤ 80% of control)
- IC50 ([4]; read-out: IC50 towards MRPs activity (CMFDA excretion), non-linear regression of pump out assay data): 3.8 µM
- IC50 [5]: 2.43 µM
- IC50 [6]: 26 µM
- IC50 [7]: 10 µM
- kout Rho 123, mean [2]: 70.9 ± 10.6 pmol.min^−1.mg^−1 Protein
- Transporter interaction, P-gp/BCRP ([2]; 96 wells): + (Interaction with efflux pumps when Kout ≤ 80% of control)
- Transporter interaction, P-gp/BCRP ([2]; 384 wells): + (Interaction with efflux pumps when Kout ≤ 80% of control)
- Ratio Kout 96/384 wells, P-gp/BCRP [2]: 1.19
- effect on rate out of cell of R123 ([2]; MK571 50 µM, p < 0.001): slight reduction
- IC50 [8]: 50 µM

Compound: CO[C@H]1/C=C/O[C@@]2(C)Oc3c(C)c(O)c4c(O)c(c(/C=N/N5CCN(C)CC5)c(O)c4c3C2=O)NC(=O)/C(C)=C\C=C\[C@H](C)[C@H](O)[C@@H](C)[C@@H](O)[C@@H](C)[C@H](OC(C)=O)[C@@H]1C [rifampicin]
- reduction of kout of CMFDA [4]: more than 20%
- Transporter interaction, P-gp/BCRP ([9]; 96 wells): + (Interaction with efflux pumps when Kout ≤ 80% of control)
- Transporter interaction, P-gp/BCRP ([9]; 384 wells): + (Interaction with efflux pumps when Kout ≤ 80% of control)
- decrease of Kout of R123 ([2]; p < 0.001): more than 30%
- Ratio Kout 96/384 wells, P-gp/BCRP [2]: 1.12

Compound: O=C(O)Cc1ccccc1Nc1c(Cl)cccc1Cl [diclofenac]
- Transporter interaction, MRPs ([4]; 96 wells): −
- Transporter interaction, MRPs ([4]; 384 wells): −

Compound: COc1cccc2c1C(=O)c1c(O)c3c(c(O)c1C2=O)C[C@@](O)(C(=O)CO)C[C@@H]3O[C@H]1C[C@H](N)[C@H](O)[C@H](C)O1 [doxorubicin]
- effect on rate out of CMFDA [4]: decreased strongly
- Transporter interaction, MRPs ([4]; 96 wells): + (Interaction with efflux pumps when Kout ≤ 80% of control)
- Transporter interaction, MRPs ([4]; 384 wells): −
- Papp A→B at 1 h [1]: 0.36 ± 0.03 ×10⁻⁶ cm/s
- Papp B→A at 1 h [1]: 7.6 ± 0.4 ×10⁻⁶ cm/s
- efflux ratio at 1 h, 20 µM [1]: 21.9 ± 1.11
- Transporter interaction, P-gp/BCRP ([9]; 96 wells): + (Interaction with efflux pumps when Kout ≤ 80% of control)
- Transporter interaction, P-gp/BCRP ([9]; 384 wells): + (Interaction with efflux pumps when Kout ≤ 80% of control)
- decrease of Kout of R123 ([2]; p < 0.001): more than 30%
- Ratio Kout 96/384 wells, P-gp/BCRP [2]: 1.03

Compound: Lucifer yellow
- Papp of Lucifer yellow (apical-to-basal) [10]: 0.066 ± 0.016 × 10^−6 cm/s

Compound: CN(C)C(=O)C(CCN1CCC(O)(c2ccc(Cl)cc2)CC1)(c1ccccc1)c1ccccc1 [loperamide]
- reduction of kout of CMFDA [4]: more than 20%
- Transporter interaction, MRPs ([4]; 96 wells): + (Interaction with efflux pumps when Kout ≤ 80% of control)
- Transporter interaction, MRPs ([4]; 384 wells): + (Interaction with efflux pumps when Kout ≤ 80% of control)
- kout Rho 123, mean [2]: 42.0 ± 4.9 pmol.min^−1.mg^−1 Protein
- decrease of Kout of R123 ([2]; p < 0.001): more than 30%
- Transporter interaction, P-gp/BCRP ([2]; 96 wells): + (Interaction with efflux pumps when Kout ≤ 80% of control)
- Transporter interaction, P-gp/BCRP ([2]; 384 wells): + (Interaction with efflux pumps when Kout ≤ 80% of control)
- Ratio Kout 96/384 wells, P-gp/BCRP [2]: 1.01

Compound: COc1cc2c(cc1OC)CN(CCc1ccc(NC(=O)c3cccc4c(=O)c5cccc(OC)c5[nH]c34)cc1)CC2 [elacridar]
- reduction of kout of CMFDA [4]: more than 20%
- Transporter interaction, MRPs ([4]; 96 wells): + (Interaction with efflux pumps when Kout ≤ 80% of control)
- Transporter interaction, MRPs ([4]; 384 wells): + (Interaction with efflux pumps when Kout ≤ 80% of control)
- Transporter interaction, P-gp/BCRP ([9]; 96 wells): + (Interaction with efflux pumps when Kout ≤ 80% of control)
- Transporter interaction, P-gp/BCRP ([9]; 384 wells): + (Interaction with efflux pumps when Kout ≤ 80% of control)
- decrease of Kout of R123 ([2]; p < 0.001): more than 30%
- Ratio Kout 96/384 wells, P-gp/BCRP [2]: 0.81
- reduction of b→a permeability of doxorubicin [11]: 25%

Compound: CC[C@]1(O)C[C@@H]2CN(CCc3c([nH]c4ccccc34)[C@@](C(=O)OC)(c3cc4c(cc3OC)N(C)[C@H]3[C@@](O)(C(=O)OC)[C@H](OC(C)=O)[C@]5(CC)C=CCN6CC[C@]43[C@@H]65)C2)C1 [vinblastine]
- reduction of kout of CMFDA [4]: more than 20%
- decrease of Kout of R123 ([2]; p < 0.001): more than 30%
- Transporter interaction, P-gp/BCRP ([2]; 96 wells): + (Interaction with efflux pumps when Kout ≤ 80% of control)
- Transporter interaction, P-gp/BCRP ([2]; 384 wells): + (Interaction with efflux pumps when Kout ≤ 80% of control)
- Ratio Kout 96/384 wells, P-gp/BCRP [2]: 0.99

Compound: COC(=O)c1ccccc1-c1c2ccc(=N)cc-2oc2cc(N)ccc12 [R123, rhodamine 123]
- Papp A→B at 1 h [1]: 1.51 ± 0.01 ×10⁻⁶ cm/s
- Papp B→A at 1 h [1]: 8.94 ± 0.4 ×10⁻⁶ cm/s
- efflux ratio at 1 h, 20 µM [1]: 5.96 ± 0.26

Compound: COc1ccc([C@@H]2Sc3ccccc3N(CCN(C)C)C(=O)[C@@H]2OC(C)=O)cc1 [diltiazem]
- Transporter interaction, MRPs ([4]; 96 wells): −
- Transporter interaction, MRPs ([4]; 384 wells): −

Compound: CCC1(c2ccccc2)C(=O)NC(=O)NC1=O [phenobarbital]
- kout Rho 123, mean [2]: 107.1 ± 10.0 pmol.min^−1.mg^−1 Protein
- Ratio Kout 96/384 wells, P-gp/BCRP [2]: 1.09
